US20150272952A1, “Combination” (GLAXOSMITHKLINE LLC, priority 2012, published 2015)
Read-outs that look alike come from different tables or passages of the source.

Legend:
HCC1419 = experiment: Cell growth inhibition assay (Cell Titer Glo), HCC1419; assay type: cell-based; conditions: Homo sapiens
Method: (§1) Human tumor cell lines from breast, BT474, BT474-J4, JIMT-1, MDA-MB-361, SK-BR-3, HCC1419, UACC893 and HCC202 in RPMI 1640 containing 10% FBS media; SK-BR-3-W13 and BT474-J4 in RPMI 1640 containing 10% FBS and 1 μM Compound A (in this assay, Compound A, was used in the form of the ditosylate monohydrate salt) media were kept in a humidified incubator at 37° C. in 95% air and 5% CO2 JIMT-1 is a line derived from a patient clinically resistant to trastuzumab (Herceptin®). SK-BR-3-W13 is a single cell clone isolated by a cloning cylinder after a single treatment of SK-BR-3 cells with 0.5 μM Compound A. BT474-J4 is a single cell clone derived from BT474 cells that were selected to grow in Compound A to a concentration of 3 μM.
(§2) All cells were cultured without Compound A for a minimum of 72 hours prior to cell plating. Cells were assayed in a 96-well tissue culture plate (NUNC 136102) of RPMI containing 10% FBS at 2,000 cells/well. Approximately 24 hours after plating, cells were exposed to ten, two-fold or three-fold serial dilutions of Compound A or the combination of the two agents at a constant molar to molar ratio of 10:1 Compound A to Compound B (in this assay, Compound B refers to N-{(1S)-2-amino-1-[(3,4-difluorophenyl)methyl]ethyl}-5-chloro-4-(4-chloro-1-methyl-1H-pyrazol-5-yl)-2-furancarboxamide and was used as the free or unsalted compound) in RPMI media containing 10% FBS. Cells were incubated in the presence of compounds for 3 days. ATP levels were determined by adding Cell Titer Glo® (Promega) according to the manufacturer's protocol. Briefly, Cell Titer Glo® was added each plate, incubated for 20 minutes then luminescent signal was read on the SpectraMax L plate reader with a 0.5 sec integration time.
(§3) Inhibition of cell growth was estimated after treatment with Compound A or the combination of Compound A and Compound B for three days and comparing the signal to cells treated with vehicle (DMSO). Cell growth was calculated relative to vehicle (DMSO) treated control wells. Concentration of compound that inhibits 50% of control cell growth (IC50) was interpolated using nonlinear regression with the equation, y=(A+(B−A)/(1+(C/x)̂D)))), where A is the minimum response (ymin), B is the maximum response (ymax), C is the inflection point of the curve (EC50) and D is the Hill coefficient. […]
(§4) In general, a CI value <0.9, between 0.9 and 1.1, or >1.1 indicates synergy, additivity and antagonism, respectively. In general, the smaller the CI number, the greater is the strength of synergy. […]

BT474 = experiment: Cell growth inhibition assay (Cell Titer Glo), BT474; assay type: cell-based; conditions: Homo sapiens
Method: as §1, §2, §3, §4

SK-BR-3 = experiment: Cell growth inhibition assay (Cell Titer Glo), SK-BR-3; assay type: cell-based; conditions: Homo sapiens
Method: as §1, §2, §3, §4

UACC893 = experiment: Cell growth inhibition assay (Cell Titer Glo), UACC893; assay type: cell-based, Human; conditions: for IC50: Homo sapiens, UACC-893, 72 h, UACC893, PIK3CA H1047R, 3 days, single agent; for sensitivity of the line to single agent: UACC893, H1047R PIK3CA mutation
Method: as §1, §2, §3, §4

KPL4 = experiment: Cell growth inhibition assay (Cell Titer Glo), KPL4; assay type: cell-based, Human; conditions: for IC50: Homo sapiens, 72 h, KPL4, PIK3CA H1047R, 3 days, single agent; for sensitivity of the line to single agent: KPL-4, H1047R PIK3CA mutation
MDA-MB-361 = experiment: Cell growth inhibition assay (Cell Titer Glo), MDA-MB-361; assay type: cell-based, Human; conditions: for IC50: Homo sapiens, 72 h, MDA-MB-361, PIK3CA E545K, 3 days, single agent; for sensitivity of the line to single agent: MDA-MB-361, E545K PIK3CA mutation
Method: as §1, §2, §3, §4

HCC202 = experiment: Cell growth inhibition assay (Cell Titer Glo), HCC202; assay type: cell-based, Human; conditions: for sensitivity of the line to single agent: HCC202, E545K PIK3CA mutation; for IC50: Homo sapiens, 72 h, HCC202, PIK3CA E545K, 3 days, single agent
Method: as §1, §2, §3, §4

BT474-J4 = experiment: Cell growth inhibition assay (Cell Titer Glo), BT474-J4; assay type: cell-based, Human; conditions: for IC50: Homo sapiens, 72 h, BT474-J4 (resistant to Compound A and trastuzumab), PIK3CA K111N, 3 days, single agent
Method: as §1, §2
Inhibition of cell growth was estimated after treatment with Compound A or the combination of Compound A and Compound B for three days and comparing the signal to cells treated with vehicle (DMSO). Cell growth was calculated relative to vehicle (DMSO) treated control wells. […]

SK-BR3-W13 = experiment: Cell growth inhibition assay (Cell Titer Glo), SK-BR3-W13; assay type: cell-based; conditions: Homo sapiens
Method: as §1, §2, §3, §4

JIMT1 = experiment: Cell growth inhibition assay (Cell Titer Glo), JIMT1; assay type: cell-based; conditions: Homo sapiens
Method: as §1, §2, §3, §4

[1] = 72 h, HCC1419, PIK3CA WT, 3 days, single agent, read-out: Single agent (IC50, μm)
[2] = HCC1419, single agent, bound stated, read-out: IC50
[3] = BT-474, 72 h, BT474, PIK3CA K111N, 3 days, single agent, read-out: Single agent (IC50, μm)
[4] = BT-474, BT474, single agent, bound stated, read-out: IC50
[5] = 72 h, SK-BR-3, PIK3CA WT, 3 days, single agent, read-out: Single agent (IC50, μm)
[6] = SK-BR-3, single agent, bound stated, read-out: IC50
[7] = 72 h, SK-BR3-W13 (resistant to Compound A and trastuzumab), 3 days, single agent, read-out: Single agent (IC50, μm)
[8] = SK-BR-3-W13, single agent, bound stated, read-out: IC50
[9] = JIMT-1, 72 h, JIMT1 (resistant to Compound A and trastuzumab), PIK3CA C420R, 3 days, single agent, read-out: Single agent (IC50, μm)
[10] = JIMT-1, JIMT1, single agent, bound stated, read-out: IC50

Row | Structure (SMILES) | IC50 (HCC1419; [1]) [µM] | IC50 (HCC1419; [2]) [µM] | IC50 (BT474; [3]) [µM] | IC50 (BT474; [4]) [µM] | IC50 (SK-BR-3; [5]) [µM] | IC50 (SK-BR-3; [6]) [µM] | IC50 (UACC893) [µM] | sensitivity of the line to single agent (UACC893) | IC50 (KPL4) [µM] | sensitivity of the line to single agent (KPL4) | IC50 (MDA-MB-361) [µM] | sensitivity of the line to single agent (MDA-MB-361) | sensitivity of the line to single agent (HCC202) | IC50 (HCC202) [µM] | IC50 (BT474-J4) [µM] | IC50 (SK-BR3-W13; [7]) [µM] | IC50 (SK-BR3-W13; [8]) [µM] | IC50 (JIMT1; [9]) [µM] | IC50 (JIMT1; [10]) [µM] | sensitivity of the line to cell growth inhibition (BT474-J4; BT474-J4, single agent)
1 | CS(=O)(=O)CCNCc1ccc(-c2ccc3ncnc(Nc4ccc(OCc5cccc(F)c5)c(Cl)c4)c3c2)o1 [Compound A, N-{3-Chloro-4-[(3-fluorobenzyl)oxy]phenyl}-6-[5-({[2-(methanesulphonyl)ethyl]amino}methyl)-2-furyl]-4-quinazolinamine, reference compound] | 0.084 ± 0.034 | < 0.2 | 0.171 ± 0.034 | < 0.2 | 0.196 ± 0.07 | < 0.2 | 0.492 ± 0.498 | sensitive | 0.43 ± 0.159 | sensitive | > 10 | less sensitive | less sensitive | 2.408 ± 0.022 | 5.17 ± 2.2 | 5.61 ± 1.05 | > 5 | 7.78 ± 1.27 | > 5 | –
2 | Cn1ncc(Cl)c1-c1cc(C(=O)N[C@H](CN)Cc2ccc(F)c(F)c2)oc1Cl [Compound B, N-{(1S)-2-amino-1-[(3,4-difluorophenyl)methyl]ethyl}-5-chloro-4-(4-chloro-1-methyl-1H-pyrazol-5-yl)-2-furancarboxamide] | 0.573 ± 0.154 | > 0.5 | > 1 | > 0.5 | > 1 | > 0.5 | 0.03 ± 0.027 | sensitive | 0.019 ± 0.004 | sensitive | 0.151 ± 0.022 | less sensitive | less sensitive | 0.919 ± 0.356 | 0.142 ± 0.047 | > 1 | > 1 | > 1 | > 1 | sensitive
